Drawing on PubChem BioAssay AID1259407 (Chemical Carcinogenesis Research Information System (CCRIS), 2018), this text covers mutagenic call for two compounds.

This series has as its system CCRIS mutagenicity, Ames/micronucleus/aberration tests. Kind of series: CCRIS mutagenicity studies.

SMILES strings stand for the structures. Active and inactive are the calls of the source. No rule for the calls is given here.

Regarding `CC(=O)CC1CCC(=O)/C=C\C(=O)OC(CC(C)=O)CCC(=O)/C=C\C(=O)O1` (stereo not given), the mutagenic call by setting is: (Test System: CHINESE HAMSTER V-79, Strain/Indicator: V-79 (HPRT)/6-THIOGUANINE, Metabolic Activation: NONE) “active; positive”; (Test System: CHINESE HAMSTER V-79, Strain/Indicator: V-79 (HPRT)/6-THIOGUANINE, Metabolic Activation: RAT, LIVER, S-9, 3-METHYLCHOLANTHRENE) “active; positive”.

For the compound `COc1ccc2cc(CCC(C)=O)ccc2c1`, the mutagenic call reads like this: (Test System: AMES SALMONELLA TYPHIMURIUM, Strain/Indicator: TA97, Metabolic Activation: NONE, Method: STANDARD PLATE) “inactive; negative”; (Test System: AMES SALMONELLA TYPHIMURIUM, Strain/Indicator: TA97, Metabolic Activation: S-9, Method: STANDARD PLATE) “inactive; negative”; (Test System: AMES SALMONELLA TYPHIMURIUM, Strain/Indicator: TA98, Metabolic Activation: NONE, Method: STANDARD PLATE) “inactive; negative”; (Test System: AMES SALMONELLA TYPHIMURIUM, Strain/Indicator: TA98, Metabolic Activation: S-9, Method: STANDARD PLATE) “inactive; negative”; (Test System: AMES SALMONELLA TYPHIMURIUM, Strain/Indicator: TA100, Metabolic Activation: NONE, Method: STANDARD PLATE) “inactive; negative”; (Test System: AMES SALMONELLA TYPHIMURIUM, Strain/Indicator: TA100, Metabolic Activation: S-9, Method: STANDARD PLATE) “inactive; negative”. Also, the mutagenic call is, setting by setting: (Test System: AMES SALMONELLA TYPHIMURIUM, Strain/Indicator: TA102, Metabolic Activation: NONE, Method: STANDARD PLATE) “inactive; negative”; (Test System: AMES SALMONELLA TYPHIMURIUM, Strain/Indicator: TA102, Metabolic Activation: S-9, Method: STANDARD PLATE) “inactive; negative”.
